Test results published in publication PMC3454463 (2012).
Like-named read-outs stand apart in the source and are kept apart here.

Columns and labels:
Assay type in all cases: binding
[1] = target: T1, MD2 (myeloid differentiation protein 2) (Homo sapiens, UniProt Q9Y6Y9); assay: quenching of MD2 intrinsic fluorescence
T1 sequence (Q9Y6Y9 19-160): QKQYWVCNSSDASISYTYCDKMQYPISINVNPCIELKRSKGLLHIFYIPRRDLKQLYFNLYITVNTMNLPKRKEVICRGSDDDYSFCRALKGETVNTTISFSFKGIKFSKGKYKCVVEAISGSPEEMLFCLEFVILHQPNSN

[2] = target: T1, MD2 (myeloid differentiation protein 2); assay: quenching of MD2 intrinsic fluorescence; remark: listed apart in the source
[3] = target: T1, MD2 (myeloid differentiation protein 2); assay: Bis-ANS-MD2 complex fluorescence, displaced by

## C=CCN1CC[C@@]23c4c5ccc(O)c4O[C@@H]2C(=O)CC[C@]3(O)[C@@H]1C5 [(+)-naloxone]
[1]
  Kd: 16.6 ± 4.7 µM

## C=CCN1CC[C@]23c4c5ccc(O)c4O[C@H]2C(=O)CC[C@@]3(O)[C@H]1C5 [(−)-naloxone]
[2]
  Kd: 17.7 ± 3.2 µM

## O=S(=O)(O)c1cccc2c(-c3ccc(Nc4ccccc4)c4c(S(=O)(=O)O)cccc34)ccc(Nc3ccccc3)c12 [Bis-ANS]
[3]
  Bis-ANS-MD2 complex fluorescence, displaced by (+)-naloxone: (+)-Naloxone decreased Bis-ANS-MD2 complex fluorescence, suggesting that (+)-naloxone replaces Bis-ANS binding to MD2
